# Results: US10849863B2, “Compounds for treating cancer, for administering, and for pharmaceutical compositions” (UNIVERSITY OF LOUISVILLE RESEARCH FOUNDATION, INC., priority 2011, dated 2020)
# Tests used:
# SK-MEL-28 cells [1] = assay: Visual assessment of cytotoxicity, SK-MEL-28 cells; format: cell-based, human; conditions: for rounded up cells in mitosis (visual assessment): SK-MEL-28 cells (paclitaxel resistant), 24-well plate (FIG. 5B)
# Text: (§1) The cytotoxicity of the compounds were initially assessed visually and by photomicroscopy. Visual inspection of dose response experiments over a protracted time course provides valuable information on the responses of cells to the treatments. Phase contrast microscopy allows one to assess whether cells are undergoing mitotic arrest and/or apoptosis by their altered morphology. Mitotic cells rounded up with smooth membranes and often condensed chromosomes aligned at a metaphase plate were clearly visible. […] Cells were plated in 24-well plates and allowed to attach and stabilize overnight. Cells were then treated with compounds in dose response and photomicrographs were taken at various time points over 2 days. Photographs were assembled in composite figures showing dose response at a given time point.
# tGM24 cells [2] = assay: Visual assessment of cytotoxicity, tGM24 cells; format: cell-based, human
# Text: as §1
# SK-MEL-28 cells [3] = assay: AlamarBlue viability assay, SK-MEL-28 cells; format: cell-based, human; conditions: 32 h (FIG. 10)
# Method: (§2) The method used for the viability assay follows. Cells were seeded in 96-well plates for measuring cell growth during treatment by the tested compound using the AlamarBlue fluorescence assay (Biosource International, Inc., Camarillo, Calif.). AlamarBlue (resazurin) is a soluble, non-toxic dye used to monitor the functional electron transport chain of a viable cell by reduction of the dye from its oxidized, non-fluorescent (blue) state to the reduced, fluorescent (pink) state (resorufin). AlamarBlue was added six hours prior to the desired time point in an amount equal to 10% (v/v) of the culture volume, and the plates were returned to the incubator. At the end of the six hour incubation, the amount of AlamarBlue reduction was measured using a fluorometric plate reader ([…]). The plate reader was blanked by reading the fluorescence of cell free medium supplemented with AlamarBlue (States et al., Toxicol. Appl. Pharmacol., Vol. 180, pages 83-91 (2002)). Data are reported as a percentage of the untreated control. Three independent experiments were analyzed and results are shown as average±standard deviation.
# HeLa cells [4] = assay: Visual assessment of cytotoxicity, HeLa cells; format: cell-based, human; conditions: for rounded up cells in mitosis (visual assessment): HeLa cells (paclitaxel sensitive), 24-well plate (FIG. 5A)
# Text: as §1
# HeLa cells [5] = assay: AlamarBlue viability assay, HeLa cells; format: cell-based, human; conditions: for effectiveness at reducing viability (Alamar Blue), rank among T-8, T-13, T-14: 32 h (FIG. 8A)
# Method: (§3) The test compositions in Table 1 were tested first for their ability to induce cytotoxicity in dose response curves using an AlamarBlue assay using two cancer cell lines.
# as §2
# HeLa cells [6] = assay: Mitotic index and mitotic catastrophe index determination (mitotic spread assay), HeLa cells; format: cell-based, human; conditions: for percent of nuclei present as clean mitotic spreads (mitotic index) / percentage of nuclei presenting as mitotic catastrophe: 60 μM T-8 or 10 μM T-3, 24 h, vs DMSO control, p<0.05 (FIG. 4)
# Method: (§4) Cells were harvested for mitotic index analysis by trypsinization. Media, wash, and trypsinized cells were collected together and centrifuged to pellet all the cells. Cells were resuspended in 150 mL serum free media and 2.5 mL 0.4% KCl was added. The suspension was incubated for 10 minutes at 37° C. Methanol:acetic acid fixative solution (3:1, v/v) was then added to 2% (v/v) and cells were collected by centrifugation. Cells were resuspended in 2.5 mL fixative solution and fixed at room temperature for 20 minutes. Samples were centrifuged; pellets were resuspended in 0.5 mL fixative and chilled on ice for one hour. Aliquots of the suspensions were dropped onto slides (two slides per sample), air dried, and stained with Wright Giemsa solution (States et al., Toxicol. Appl. Pharmacol., Vol. 180, pages 83-91 (2002); Taylor et al., J. Pharmacol. Exp. Ther., Vol. 318, pages 142-151 (2006)). Slides were examined under a microscope and at least 200 cells were counted on each slide for determination of mitotic index and mitotic catastrophe index. Only cells with distinct interphase nuclei appearance (panel Q from FIG. 2), metaphase spread appearance (panel S from FIG. 2), or mitotic catastrophe appearance (panel T from FIG. 2) were counted. Mitotic index and mitotic catastrophe index were determined using the following formula: Mitotic index=(cells with mitotic spread appearance as exemplified in panel S of FIG. 2)/(total number of counted cells) Mitotic catastrophe index=(cells with mitotic catastrophe appearance as exemplified in panel T of FIG. 2)/(total number of counted cells)
# Three independent experiments were analyzed. DAPI stain in mounting media (Molecular Probes) added directly to the slides was used to identify DNA in interphase nuclei, mitotic spreads, mitotic catastrophe, and nuclear fragmentation by fluorescence microscopy.
# Test compositions T-1 to T-9 in Table 1 were tested for their ability to induce mitotic arrest using a mitotic spread assay because it can also be used to score for mitotic catastrophe (Taylor et al., J. Pharmacol. Exp. Ther., Vol. 318, Pages 142-151 (2006); Taylor et al., Toxicol. Appl. Pharmacol., Vol. 230, Pages 235-246 (2008)). […] In these tests, a single concentration of each test composition was tested based on cytotoxicity results of FIG. 1 and on results of observational studies to determine the dose and time course of morphological changes induced (data not shown). The concentrations chosen were the minimum concentrations required to induce <10% survival and morphological changes at 16-24 hours.
# GM0637 cells [7] = assay: AlamarBlue viability assay, GM0637 cells; format: cell-based, human; conditions: 32 h (FIG. 10)
# Method: as §2
# SK-MEL-28 cells [8] = assay: Clonogenic viability assay, SK-MEL-28 cells; format: cell-based, human; conditions: SK-MEL-28 cells (paclitaxel resistant); colonies counted after 10 days (FIG. 6B)
# Method: (§5) Clonogenic assays are used to determine the impact of a test compositions on the ability of cells to replicate. Cells are plated at cloning densities (100 and 500 cells per well in a 6-well plate; 3 wells of each cell number), and allowed to attach and stabilize overnight. Cells are then treated in dose-response experiments with test composition(s) (one concentration of test composition per plate) and incubated for 7-10 days to allow colonies of >30 cells to form. Colonies are stained with crystal violet and counted. Colony forming ability is then calculated as a percent of control by setting the mean number of colonies per well of cells treated with vehicle (0.1% DMSO) equal to 100 percent.
# HeLa cells [9] = assay: Clonogenic viability assay, HeLa cells; format: cell-based, human; conditions: for colony formation (clonogenic cytotoxicity): Hela cells (paclitaxel sensitive), colonies counted after 10 days (FIG. 6A)
# Method: as §5
# GM0637 cells [10] = assay: Visual assessment of cytotoxicity, GM0637 cells; format: cell-based; conditions: GM0637 (SV40-transformed human skin fibroblasts); 49 h (FIG. 9)
# Text: as §1
# tGM24 cells [11] = assay: AlamarBlue viability assay, tGM24 cells; format: cell-based, human; conditions: 32 h (FIG. 10)
# Method: as §2
# A375 cells [12] = assay: AlamarBlue viability assay, A375 cells; format: cell-based, human; conditions: 32 h (FIG. 8B)
# Method: as §3, §2
# A375 cells [13] = assay: Mitotic index and mitotic catastrophe index determination (mitotic spread assay), A375 cells; format: cell-based, human; conditions: selected concentrations (1-10 μM), eighteen hours, among T-1 to T-9 (FIG. 3)
# Method: as §4, with “Aliquots of the suspensions were dropped onto slides (two slides per sample), air dried, and stained with Wright Giemsa solution (States et al., Toxicol. Appl. Pharmacol., Vol. 180, pages 83-91 (2002); Taylor et al., J. Pharmacol. Exp. Ther., Vol. 318, pages 142-151 (2006)).” left out
# Three independent experiments were analyzed. […]
# [14] = tGM24 normal diploid cells, 49 h (FIG. 9)
Compound,"effectiveness at reducing viability (Alamar Blue), rank among T-8, T-13, T-14 (HeLa cells [5])",colony formation (clonogenic cytotoxicity) (SK-MEL-28 cells [8]),colony formation (clonogenic cytotoxicity) (HeLa cells [9]),"effectiveness at reducing viability (Alamar Blue), rank among T-8, T-13, T-14 (A375 cells [12])",rounded up cells in mitosis (visual assessment) (SK-MEL-28 cells [1]),rounded up cells in mitosis (visual assessment) (HeLa cells [4]),further results
Cl.OC(CNC1CCCC1)COCCOc1ccc(Br)cc1 (racemic) [T-8],most effective,decreased colony formation,decreased colony formation,most effective,–,–,"accumulation of mitotic cells and apoptotic cells (visual assessment) (SK-MEL-28 cells [1]; SK-MEL-28 (paclitaxel resistant human melanoma), 49 h (FIG. 9)): accumulated; selectivity for carcinoma cells and transformed cells compared to normal diploid cells (tGM24 cells [2]; SK-MEL-28, HeLa, GM0637 vs tGM24, visual assessment (FIG. 9)): selectivity of T-8 for carcinoma cells and transformed cells; accumulation of mitotic cells and apoptotic cells (visual assessment) (tGM24 cells [2]; tGM24 (telomerase immortalized human diploid skin fibroblasts), 49 h (FIG. 9)): not in tGM24; increase in cell number (visual assessment) (tGM24 cells [2]; tGM24, 49 h (FIG. 9)): less apparent; cell death of normal diploid cells (visual assessment) (tGM24 cells [2]; [14]): not observed; growth of normal diploid cells (visual assessment) (tGM24 cells [2]; [14]): appeared to be inhibited; cytotoxicity (Alamar Blue), sensitivity compared across cell lines (SK-MEL-28 cells [3]): moderate sensitivity; accumulation of mitotic cells and apoptotic cells (visual assessment) (HeLa cells [4]; HeLa (paclitaxel sensitive human cervical carcinoma), 49 h (FIG. 9)): accumulated; cytotoxicity (Alamar Blue), sensitivity compared across cell lines (HeLa cells [5]; 32 h (FIG. 10)): most effective; percent of nuclei present as clean mitotic spreads (mitotic index) (HeLa cells [6]): decreased; percentage of nuclei presenting as mitotic catastrophe (HeLa cells [6]): higher percentage; cytotoxicity (Alamar Blue), sensitivity compared across cell lines (GM0637 cells [7]): moderate sensitivity; accumulation of mitotic cells and apoptotic cells (visual assessment) (GM0637 cells [10]): accumulated; cytotoxicity (Alamar Blue), sensitivity compared across cell lines (tGM24 cells [11]): relatively resistant"
CCc1ccc(OCCOCC(O)CNC2CCCC2)cc1.Cl (racemic) [T-13],followed by T-13,–,–,followed by T-13,–,–,–
CC(C)NCC(O)COCCOc1ccc(Cl)cc1.Cl (racemic) [T-14],least efficacy,–,–,least efficacy,–,–,–
CCCCOc1ccc(NC2=NC3(CCCCC3)N=C(N)N2)cc1 [T-3],–,decreased colony formation,decreased colony formation,–,accumulate,accumulate,"percent of nuclei present as clean mitotic spreads (mitotic index) (HeLa cells [6]): increased; percentage of nuclei presenting as mitotic catastrophe (HeLa cells [6]): higher percentage; mitotic index (HeLa cells [6]; selected concentrations (1-10 μM), twice the concentration used for A375, eighteen hours, among T-1 to T-9 (FIG. 3)): highest mitotic index; mitotic index (A375 cells [13]): highest mitotic index"
CCCCOc1ccc(NC2=NC3(CCCC3)N=C(N)N2)cc1 [T-10],–,decreased colony formation,decreased colony formation,–,at slightly higher concentrations,at slightly higher concentrations,–
COc1cccc(NC2=NC3(CCCCC3)N=C(N)N2)c1 [T-11],–,–,decreased colony formation,–,less effect,less effect,"relative effectiveness in decreasing colony formation (HeLa cells [9]; Hela cells, among T-3, T-8, T-10, T-11 (FIG. 6A)): least effective"
COc1ccc(NC2=NC3(CCCC3)N=C(N)N2)cc1 [T-12],–,–,–,–,less effect,less effect,–
